Measurements from patent US10858384B2, “Synthetic molecule constructs” (KODE BIOTECH LIMITED, priority 2004, dated 2020).

Legend:
RBCs [1] = experiment: Insertion efficiency: post-transformation supernatant solutions, tube serology; assay type: cell-based
Description: The post-transformation supernatant solutions (from Atri-sp-Ad-DOPE (I) at 0.08 mg/mL, 0.05 mg/mL and 0.03 mg/mL, and Btri-sp-Ad-DOPE (VI) at 0.6 mg/mL, 20 μL) were added neat and in a 1:2 dilution to washed, packed RBCs (60 μL). The tubes were incubated in a 37° C. waterbath for one hour, with mixing taking place every 15 minutes.
The transformed RBCs were washed 3× with PBS and then suspended in Cellstab™ at the appropriate concentration for serology testing.

RBCs [2] = experiment: Detectable transformation ability of synthetic glycolipids (agglutination); assay type: cell-based; details: agglutination with the appropriate antibody
Excerpt: The synthetic glycolipid must also be able to insert into the membrane and be recognisable to the appropriate antibody for transformation to be detected by agglutination. Initial tests on the molecules were to establish solubility and thus eliminate those molecules that were unsuitable for use in the transformation of cells.

group O RBCs = experiment: Diamed agglutination of RBCs transformed at 4° C. with synthetic glycolipids (weak A, B and AB cells); assay type: cell-based, human; details: 0.03 mg/mL, anti-A, time = table row
Description: Transformation of RBCs with synthetic glycolipids Atri-sp-Ad-DOPE (I) and Btri-sp-Ad-DOPE (VI) at 4° C. was then evaluated (Tables 25 to 28). These transformations were directed towards the preparation of cells expressing low levels of A, B or A and B glycotopes (“weak A, B and AB cells”).
For the preparation of weak A and B cells transformation solutions (20 μL, Atri-sp-Ad-DOPE (I) at 0.08, 0.05 and 0.03 mg/mL, and Btri-sp-Ad-DOPE (VI) at 0.6, 0.3, 0.15, 0.08, 0.05 and 0.03 mg/mL) in 1× PBS were mixed with washed, packed group O RBCs (60 μL).
For the preparation of weak AB cells transformation solutions (20 μL, Atrii-sp-Ad-DOPE (I) at 0.07, 0.06 and 0.05 mg/mL, and Btri-sp-Ad-DOPE (VI) at 0.3, and 0.2 mg/mL) in 1× PBS were combined in block titre with washed, packed group O RBCs (60 μL). The combinations were: Atri-sp-Ad-DOPE (I) at 0.07 mg/mL+Btri-sp-Ad-DOPE (VI) at 0.3 mg/mL; Atri-sp-Ad-DOPE (I) at 0.07 mg/mL+Btri-sp-Ad-DOPE (VI) at 0.2 mg/mL; Atri-sp-Ad-DOPE (I) at 0.06 mg/mL+Btri-sp-Ad-DOPE (VI) at 0.3 mg/mL; Atri-sp-Ad-DOPE (I) at 0.06 mg/mL+Btri-sp-Ad-DOPE (VI) at 0.2 mg/mL; Atri-sp-Ad-DOPE (I) at 0.05 mg/mL+Btri-sp-Ad-DOPE (VI) at 0.3 mg/mL; and Atri-sp-Ad-DOPE (I) 0.05+Btri-sp-Ad-DOPE (VI) 0.2 mg/mL.
Cells and transformation solutions were placed in a […] fridge. Pipette mixing was performed at intervals. […]

[3] = system: group O red blood cells (RBCs); experiment: Tube serology of group O RBCs transformed at 37° C. with synthetic glycolipids; assay type: cell-based, human; design: Albaclone anti-A, Tube / Bioclone anti-A, Tube: scale not given here
Description: Washed packed group O red blood cells (RBCs) (3 parts by volume) and the synthetic glycolipid solution (1 part by volume, varying concentrations) were added to an eppendorf tube. The tube was incubated in a 37° C. waterbath for one hour, mixing every 15 minutes. […]
Tube serology and Diamed gel-card results for RBCs transformed with the different synthetic molecule constructs are provided in Table 38. Results for the stability of the RBCs transformed with the different synthetic glycolipids at different concentrations are provided in Tables 39 to 44.

RBCs [4] = experiment: Column agglutination of RBCs transformed with sterile-filtered vs unfiltered synthetic glycolipid; assay type: cell-based; details: for Column agglutination: 0.01 mg/mL, anti-A BioClone
Excerpt: Some Atri-sp-Ad-DOPE (I) had been sterile-filtered through a 0.2 μm filter. To investigate whether transformation would be the same with this product a comparative trial was done.

[5] = system: endometrial cells and embryos; experiment: Attachment of transformed endometrial cells to modified embryos; assay type: cell-based; details: 15 minutes at 37° C.
Description: Modified embryos (BioG-Avidin-BioIgG^B and BioG-Avidin-BioIgM^A) were prepared in accordance with the methods described in the specification accompanying the international application no. PCT/NZ03/00059 (published as WO03/087346).
Two concave glass slides were prepared, one with two wells of synthetic glycolipid Atri-sp-Ad-DOPE (I) inserted endometrial cells and the other with two wells of synthetic glycolipid Btri-sp-Ad-DOPE (VI) inserted endometrial cells.
The embryos were surrounded with endometrial cells. The wells were covered with mineral oil and incubated for 15 minutes at 37° C. Using a wide bore handling pipette each group of embryos were carefully transferred to a fresh drop of M2 media. The embryos were gently washed. The embryos were gently transferred into 2 μL of M2 media on a marked microscope slide. Each drop was overlaid with mineral oil
Under a central plane of focus on an Olympus microscope the number of endometrial cells adhered to the embryos in each group was assessed. The number of cells adhered to each embryo was recorded.

CCCCCCCC/C=C\CCCCCCCC(=O)OC[C@H](COP(=O)(O)OCCNC(=O)CCCCC(=O)NCCCO[C@@H]1O[C@H](CO)[C@H](O)[C@H](O[C@H]2O[C@H](CO)[C@H](O)[C@H](O)[C@H]2NC(C)=O)[C@H]1O[C@@H]1O[C@@H](C)[C@@H](O)[C@@H](O)[C@@H]1O)OC(=O)CCCCCCC/C=C\CCCCCCCC [Atri-sp-Ad-DOPE (I)]
Score (tube serology) (RBCs [1]; 1:2, pre-trans conc 0.03 mg/mL): 0 | Score (tube serology) (RBCs [1]; 1:2, pre-trans conc 0.05 mg/mL): 0 | Score (tube serology) (RBCs [1]; 1:2, pre-trans conc 0.08 mg/mL): 0 | Score (tube serology) (RBCs [1]; neat, pre-trans conc 0.03 mg/mL): 0 | Score (tube serology) (RBCs [1]; neat, pre-trans conc 0.05 mg/mL): 0 | Score (tube serology) (RBCs [1]; neat, pre-trans conc 0.08 mg/mL, 37° C. 1 h): 0 | Detectable transformation ability (RBCs [2]): Yes | Agglutination score (group O RBCs; unwashed): 0 | Agglutination score (group O RBCs; washed): 0 | Albaclone anti-A, Tube ([3]; 0.01 mg/mL): 0 | Bioclone anti-A, Tube ([3]; 0.01 mg/mL): 0 | Albaclone anti-A, Tube ([3]; 0.02 mg/mL): 0 | Bioclone anti-A, Tube ([3]; 0.02 mg/mL): 0 | Agglutination, manual tube serology, Albaclone anti-A ([3]; 0.025 mg/mL, Day 8, Alsevers): w+ | Agglutination, manual tube serology, Albaclone anti-A ([3]; 0.025 mg/mL, Day 8, Cellstab): vw | Agglutination, manual tube serology, Albaclone anti-A ([3]; 0.025 mg/mL, Day 15, Alsevers): 0 | Agglutination, manual tube serology, Bioclone anti-A ([3]; 0.025 mg/mL, Day 15, Alsevers): Vw | Agglutination, manual tube serology, Albaclone anti-A ([3]; 0.025 mg/mL, Day 15, Cellstab): 0 | Agglutination, manual tube serology, Albaclone anti-A ([3]; 0.025 mg/mL, Day 22, Alsevers): 0 | Agglutination, manual tube serology, Bioclone anti-A ([3]; 0.025 mg/mL, Day 22, Alsevers): w+ | Agglutination, manual tube serology, Albaclone anti-A ([3]; 0.025 mg/mL, Day 44, Cellstab): w+ | Agglutination, manual tube serology, Bioclone anti-A ([3]; 0.025 mg/mL, Day 44, Cellstab): w+ | Albaclone anti-A, Tube ([3]; 0.03 mg/mL): 0 | Bioclone anti-A, Tube ([3]; 0.03 mg/mL): w+ | Albaclone anti-A, Tube ([3]; 0.04 mg/mL): w+ | Albaclone anti-A, Tube ([3]; 0.05 mg/mL): w+ | Agglutination, manual tube serology, Albaclone anti-A ([3]; 0.05 mg/mL, Day 15, Cellstab): w+ | Difference in transformation between sterile-filtered (0.2 μm) and unfiltered preparation (RBCs [4]): no significant difference | Column agglutination (RBCs [4]; sterile-filtered): 0 | Column agglutination (RBCs [4]; unfiltered): 0 | Average number of endometrial cells attached to modified embryos ([5]; embryos modified with BioG-Avidin-BioIgG^B): 2.3 | Average number of endometrial cells attached to modified embryos ([5]; embryos modified with BioG-Avidin-BioIgM^A): 7.25
